Results as given in ChEMBL document CHEMBL1201862, “PubChem BioAssay data set” (2004).
Activity calls are given as the source filed them. Cut-off read from the data, not from the text of the source, for most assays here: actives have a measured IC50 and inactives only a lower limit.

What was measured:
Interleukin-8 [1] = biological target: T1, Interleukin-8 (Homo sapiens, UniProt P10145); assay: SAR analysis of GM-Tri-DAP induced IL-8 secretion in MCF-7/NOD1 cells - Set 2. [Related pubchem assays (depositor defined):AID1575, AID1578, AID2333]; type: functional, cell-based
[2] = biological target: T2, Nucleotide-binding oligomerization domain-containing protein 1 (Homo sapiens, UniProt Q9Y239); assay: SAR analysis of NF-kappaB dependent luciferase using DAP as an inducer - Set 2. [Related pubchem assays (depositor defined):AID1566, AID1575, AID1578, AID1579, AID1849, AID1852, AID2264]; type: functional
[3] = biological target: T3, Nucleotide-binding oligomerization domain-containing protein 2 (Homo sapiens, UniProt Q9HC29); assay: inhibition of NOD2 signaling – set 2, SAR follow-up (AID 2475); type: functional
[4] = biological target: T3, Nucleotide-binding oligomerization domain-containing protein 2; assay: inhibition of MDP-driven NOD2 NF-kB reporter – cell-based, set 3, SAR follow-up (AID 2799); type: functional
[5] = biological target: T2, Nucleotide-binding oligomerization domain-containing protein 1; assay: SAR analysis of compounds that inhibit NOD1 - Set 3. [Related pubchem assays (depositor defined):AID1566, AID1575, AID1578, AID1849, AID1852, AID2333, AID2335, AID2466]; type: functional
Tumor necrosis factor = Tumor necrosis factor (Homo sapiens, UniProt P01375); assay: analog potency on TNFa NF-kB signaling – cell-based, set 3, SAR follow-up (AID 2801); type: functional
HEK293 [6] = assay: SAR analysis of compounds that are cytotoxic to HEK293 - Set 2. [Related pubchem assays (depositor defined):AID1575, AID1578, AID1849, AID2001, AID2333, AID2334, AID2335, AID2337, AID2800]; type: functional, cell-based; conditions: Homo sapiens
Interleukin-8 [7] = biological target: T1, Interleukin-8; assay: SAR analysis of Tumor necrosis factor alpha (TNF-alpha) induced IL-8 secretion in MCF-7/NOD1 cells - Set 2. [Related pubchem assays (depositor defined):AID1575, AID2250, AID2260]; type: functional, cell-based
HEK293 [8] = assay: SAR analysis of compounds that are cytotoxic to HEK293 - Set 3. [Related pubchem assays (depositor defined):AID1575, AID1578, AID1848, AID1849, AID2001, AID2333, AID2334, AID2335, AID2337, AID2469]; type: functional, cell-based; conditions: Homo sapiens
Hexokinase HKDC1 = biological target: T4, Hexokinase HKDC1 (Homo sapiens, UniProt Q2TB90); assay: activation of HKDC1 glucose phosphorylation – biochemical, W721R variant, dose response (AID 504730); type: functional
T4 sequence (Q2TB90 whole entry): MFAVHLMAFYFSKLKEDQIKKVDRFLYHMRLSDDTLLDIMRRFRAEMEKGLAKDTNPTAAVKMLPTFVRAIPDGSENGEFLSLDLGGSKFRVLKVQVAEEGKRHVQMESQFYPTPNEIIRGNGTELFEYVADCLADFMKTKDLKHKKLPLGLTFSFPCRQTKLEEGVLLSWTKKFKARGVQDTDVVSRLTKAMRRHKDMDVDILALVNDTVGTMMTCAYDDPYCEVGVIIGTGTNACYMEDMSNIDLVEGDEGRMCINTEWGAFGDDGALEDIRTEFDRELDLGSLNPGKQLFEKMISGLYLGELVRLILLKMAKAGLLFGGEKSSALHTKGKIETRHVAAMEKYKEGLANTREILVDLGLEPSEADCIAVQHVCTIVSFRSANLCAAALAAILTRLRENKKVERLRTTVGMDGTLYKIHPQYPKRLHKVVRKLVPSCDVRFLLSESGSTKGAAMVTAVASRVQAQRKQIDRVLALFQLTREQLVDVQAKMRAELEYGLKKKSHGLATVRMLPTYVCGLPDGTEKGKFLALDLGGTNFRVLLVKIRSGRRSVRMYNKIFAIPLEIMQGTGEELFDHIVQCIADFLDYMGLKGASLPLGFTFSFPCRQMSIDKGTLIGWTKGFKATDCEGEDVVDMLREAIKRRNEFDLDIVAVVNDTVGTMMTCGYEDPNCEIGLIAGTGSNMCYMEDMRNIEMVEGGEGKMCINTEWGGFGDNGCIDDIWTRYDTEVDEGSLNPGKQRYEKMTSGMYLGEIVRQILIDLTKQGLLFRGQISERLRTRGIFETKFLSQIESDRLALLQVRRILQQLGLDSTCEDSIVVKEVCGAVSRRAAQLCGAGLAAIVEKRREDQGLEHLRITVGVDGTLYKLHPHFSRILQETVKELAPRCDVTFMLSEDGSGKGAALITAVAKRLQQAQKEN

Hexokinase-1 = biological target: T5, Hexokinase-1 (Homo sapiens, UniProt P19367); assay: HK1 enzyme activation by HKDC1 hits – biochemical, selectivity assay for HKDC1 activator project, dose response (AID 504762); type: functional
T5 sequence (P19367 whole entry): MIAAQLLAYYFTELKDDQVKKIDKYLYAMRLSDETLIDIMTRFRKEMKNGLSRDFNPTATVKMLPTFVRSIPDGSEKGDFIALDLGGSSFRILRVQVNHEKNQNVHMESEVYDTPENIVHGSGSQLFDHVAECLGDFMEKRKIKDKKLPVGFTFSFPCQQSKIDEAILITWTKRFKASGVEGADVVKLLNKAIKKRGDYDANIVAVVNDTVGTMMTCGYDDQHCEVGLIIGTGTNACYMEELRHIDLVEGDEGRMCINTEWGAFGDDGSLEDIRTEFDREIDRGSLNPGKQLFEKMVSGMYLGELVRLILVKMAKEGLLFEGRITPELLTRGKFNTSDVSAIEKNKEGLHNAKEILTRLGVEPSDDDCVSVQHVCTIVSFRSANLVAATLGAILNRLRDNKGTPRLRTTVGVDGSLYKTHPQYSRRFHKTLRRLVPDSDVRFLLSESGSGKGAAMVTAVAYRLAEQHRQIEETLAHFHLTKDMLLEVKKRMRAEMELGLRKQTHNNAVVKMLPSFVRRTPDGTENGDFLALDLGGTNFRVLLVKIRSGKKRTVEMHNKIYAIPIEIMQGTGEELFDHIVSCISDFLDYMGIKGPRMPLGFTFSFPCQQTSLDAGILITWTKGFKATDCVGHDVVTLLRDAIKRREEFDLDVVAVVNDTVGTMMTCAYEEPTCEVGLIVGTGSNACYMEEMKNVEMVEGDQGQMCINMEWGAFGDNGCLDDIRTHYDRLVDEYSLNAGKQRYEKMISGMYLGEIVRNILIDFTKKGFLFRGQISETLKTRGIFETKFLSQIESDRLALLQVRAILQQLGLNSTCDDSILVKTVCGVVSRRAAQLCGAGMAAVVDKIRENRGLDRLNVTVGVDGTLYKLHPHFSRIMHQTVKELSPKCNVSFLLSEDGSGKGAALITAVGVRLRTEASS

[9] = biological target: Signal transducer and activator of transcription 1-alpha/beta (Homo sapiens, UniProt P42224); assay: STAT3 blockade with qPCR and toxicity readouts – cell-based, STAT1 panel, cytotoxicity, late-stage follow-up, panel member STAT1 Inhibition (AID 2078)
[10] = biological target: Signal transducer and activator of transcription 3 (Homo sapiens, UniProt P40763); assay: STAT3 blockade with qPCR and toxicity readouts – cell-based, STAT1 panel, cytotoxicity, late-stage follow-up, panel member STAT3 Inhibition (AID 2078)
[11] = biological target: T6, Intestinal-type alkaline phosphatase (Homo sapiens, UniProt P09923); assay: human intestinal alkaline phosphatase activators, dose response, biochemical, luminescence, uHTS hits (AID 463120); type: functional
[12] = biological target: T6, Intestinal-type alkaline phosphatase; assay: Dose Response confirmation of uHTS hits from a small molecule inhibitors of human intestinal alkaline phosphatase via a luminescent assay. [Related pubchem assays (depositor defined):AID2544, AID2574]; type: functional
[13] = biological target: T7, Tyrosine-protein phosphatase non-receptor type 22 (Homo sapiens, UniProt Q9Y2R2); assay: SAR LYP1 Fluorescent Assay using OMFP substrate for In Vitro dose response studies - Set 3. [Related pubchem assays (depositor defined):AID1779, AID1784, AID2140, AID2686]; type: functional
T7 sequence (Q9Y2R2 whole entry): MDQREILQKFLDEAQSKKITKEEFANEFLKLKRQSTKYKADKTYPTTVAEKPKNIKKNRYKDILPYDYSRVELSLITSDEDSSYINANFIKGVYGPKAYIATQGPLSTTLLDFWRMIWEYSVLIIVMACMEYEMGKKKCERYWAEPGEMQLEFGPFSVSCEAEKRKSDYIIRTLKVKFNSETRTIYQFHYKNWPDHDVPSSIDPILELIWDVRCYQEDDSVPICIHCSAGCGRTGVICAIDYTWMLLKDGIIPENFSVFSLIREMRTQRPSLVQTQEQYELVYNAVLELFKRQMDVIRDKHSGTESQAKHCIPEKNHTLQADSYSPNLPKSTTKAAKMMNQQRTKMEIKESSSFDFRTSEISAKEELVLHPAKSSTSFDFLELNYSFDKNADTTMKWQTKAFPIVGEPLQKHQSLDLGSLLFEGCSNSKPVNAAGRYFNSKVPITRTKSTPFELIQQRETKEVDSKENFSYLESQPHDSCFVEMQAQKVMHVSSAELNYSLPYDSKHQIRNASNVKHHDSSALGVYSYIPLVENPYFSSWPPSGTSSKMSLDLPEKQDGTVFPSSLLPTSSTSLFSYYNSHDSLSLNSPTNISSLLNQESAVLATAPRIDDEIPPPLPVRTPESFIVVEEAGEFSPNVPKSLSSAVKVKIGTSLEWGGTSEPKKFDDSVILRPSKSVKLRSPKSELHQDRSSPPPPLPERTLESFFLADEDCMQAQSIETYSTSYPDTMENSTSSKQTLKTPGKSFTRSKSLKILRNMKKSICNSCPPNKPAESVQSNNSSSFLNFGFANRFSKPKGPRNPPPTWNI

[14] = biological target: Tyrosine-protein phosphatase non-receptor type 12 (Homo sapiens, UniProt Q05209); assay: SAR Selectivity Analysis of small molecule inhibitors of PEST using pCAP in a fluorescence assay. [Related pubchem assays (depositor defined):AID1779, AID1784, AID2135]; type: functional
[15] = biological target: T8, Tyrosine-protein phosphatase non-receptor type 7 (Homo sapiens, UniProt P35236); assay: inhibition of hematopoietic tyrosine phosphatase HePTP – biochemical, set 2, SAR follow-up (AID 449736); type: functional
T8 sequence (P35236 whole entry): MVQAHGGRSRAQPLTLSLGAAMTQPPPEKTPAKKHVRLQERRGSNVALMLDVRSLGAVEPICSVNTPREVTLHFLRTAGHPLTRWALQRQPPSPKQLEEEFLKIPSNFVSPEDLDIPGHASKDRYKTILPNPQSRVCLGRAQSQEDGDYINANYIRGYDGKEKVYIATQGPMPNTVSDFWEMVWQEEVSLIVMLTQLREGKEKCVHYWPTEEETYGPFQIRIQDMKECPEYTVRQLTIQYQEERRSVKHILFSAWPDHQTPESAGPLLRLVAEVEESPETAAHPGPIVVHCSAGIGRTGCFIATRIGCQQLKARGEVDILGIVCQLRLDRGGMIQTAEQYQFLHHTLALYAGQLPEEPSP

[16] = biological target: T7, Tyrosine-protein phosphatase non-receptor type 22; assay: inhibition of lymphoid tyrosine phosphatase LYP – biochemical, pCAP fluorogenic substrate, fluorescence, set 3, SAR follow-up (AID 449727); type: functional
[17] = biological target: T9, Dual specificity protein phosphatase 6 (Rattus norvegicus, UniProt Q64346); type: functional;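 note: confirmatory in vitro dose-response testing of MKP-3 inhibition; recombinant His-tagged MKP-3 made in E. coli BL21 with OMFP substrate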
T9 sequence (Q64346 whole entry): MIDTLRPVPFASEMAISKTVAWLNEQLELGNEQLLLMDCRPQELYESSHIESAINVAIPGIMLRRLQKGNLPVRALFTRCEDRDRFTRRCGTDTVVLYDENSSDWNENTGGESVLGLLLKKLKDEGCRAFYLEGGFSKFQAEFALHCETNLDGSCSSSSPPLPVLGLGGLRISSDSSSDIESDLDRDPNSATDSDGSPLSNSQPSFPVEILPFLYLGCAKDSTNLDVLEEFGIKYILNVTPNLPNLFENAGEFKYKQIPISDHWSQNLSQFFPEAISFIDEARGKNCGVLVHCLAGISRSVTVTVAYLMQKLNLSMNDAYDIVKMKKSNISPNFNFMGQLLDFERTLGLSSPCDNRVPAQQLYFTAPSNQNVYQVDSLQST

[18] = biological target: T10, Dual specificity protein phosphatase 3 (Homo sapiens, UniProt P51452); assay: SAR VHR1 absorbance Assay for In Vitro dose response studies. [Related pubchem assays (depositor defined):AID1654, AID1661, AID1878, AID1992, AID2004]
[19] = biological target: T8, Tyrosine-protein phosphatase non-receptor type 7; assay: redox-active compounds inhibiting HePTP phosphatase – biochemical, fluorescence, mechanism study (AID 2068); type: functional
[20] = biological target: T10, Dual specificity protein phosphatase 3; assay: SAR VHR1 Fluorescent Assay for In Vitro dose response studies. [Related pubchem assays (depositor defined):AID1654, AID1661, AID1878, AID1992, AID2004, AID2070, AID2085]; type: functional

T10 sequence (P51452 whole entry): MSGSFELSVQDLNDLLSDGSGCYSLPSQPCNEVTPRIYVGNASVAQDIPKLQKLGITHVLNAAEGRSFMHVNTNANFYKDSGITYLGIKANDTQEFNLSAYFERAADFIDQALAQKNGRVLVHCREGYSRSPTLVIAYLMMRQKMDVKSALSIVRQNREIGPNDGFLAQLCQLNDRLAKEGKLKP
T2 sequence (Q9Y239 whole entry, the tested form may be a part): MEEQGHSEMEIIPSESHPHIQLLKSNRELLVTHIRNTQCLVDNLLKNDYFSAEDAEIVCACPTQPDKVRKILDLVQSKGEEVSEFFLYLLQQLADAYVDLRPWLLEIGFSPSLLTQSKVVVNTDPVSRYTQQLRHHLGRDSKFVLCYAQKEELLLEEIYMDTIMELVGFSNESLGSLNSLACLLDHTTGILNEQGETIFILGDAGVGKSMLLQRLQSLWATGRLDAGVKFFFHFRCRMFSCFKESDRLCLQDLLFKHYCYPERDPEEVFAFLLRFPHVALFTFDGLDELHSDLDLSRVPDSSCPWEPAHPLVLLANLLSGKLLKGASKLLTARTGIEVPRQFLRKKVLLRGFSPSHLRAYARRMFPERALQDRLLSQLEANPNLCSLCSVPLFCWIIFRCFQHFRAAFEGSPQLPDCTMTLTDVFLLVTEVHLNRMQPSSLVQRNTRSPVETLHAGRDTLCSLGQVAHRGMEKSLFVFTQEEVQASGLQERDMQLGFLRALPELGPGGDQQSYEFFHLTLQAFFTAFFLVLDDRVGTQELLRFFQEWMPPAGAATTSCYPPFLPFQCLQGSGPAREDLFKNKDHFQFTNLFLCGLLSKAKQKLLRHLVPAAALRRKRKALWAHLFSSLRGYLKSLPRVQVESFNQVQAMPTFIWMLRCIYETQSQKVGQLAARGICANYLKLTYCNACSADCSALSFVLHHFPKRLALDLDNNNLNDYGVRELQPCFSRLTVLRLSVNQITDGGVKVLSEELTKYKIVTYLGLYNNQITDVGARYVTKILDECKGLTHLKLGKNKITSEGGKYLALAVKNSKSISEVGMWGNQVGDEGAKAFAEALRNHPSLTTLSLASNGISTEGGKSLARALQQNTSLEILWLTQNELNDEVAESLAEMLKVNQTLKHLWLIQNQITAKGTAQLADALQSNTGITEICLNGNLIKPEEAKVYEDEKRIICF
T3 sequence (Q9HC29 whole entry, the tested form may be a part): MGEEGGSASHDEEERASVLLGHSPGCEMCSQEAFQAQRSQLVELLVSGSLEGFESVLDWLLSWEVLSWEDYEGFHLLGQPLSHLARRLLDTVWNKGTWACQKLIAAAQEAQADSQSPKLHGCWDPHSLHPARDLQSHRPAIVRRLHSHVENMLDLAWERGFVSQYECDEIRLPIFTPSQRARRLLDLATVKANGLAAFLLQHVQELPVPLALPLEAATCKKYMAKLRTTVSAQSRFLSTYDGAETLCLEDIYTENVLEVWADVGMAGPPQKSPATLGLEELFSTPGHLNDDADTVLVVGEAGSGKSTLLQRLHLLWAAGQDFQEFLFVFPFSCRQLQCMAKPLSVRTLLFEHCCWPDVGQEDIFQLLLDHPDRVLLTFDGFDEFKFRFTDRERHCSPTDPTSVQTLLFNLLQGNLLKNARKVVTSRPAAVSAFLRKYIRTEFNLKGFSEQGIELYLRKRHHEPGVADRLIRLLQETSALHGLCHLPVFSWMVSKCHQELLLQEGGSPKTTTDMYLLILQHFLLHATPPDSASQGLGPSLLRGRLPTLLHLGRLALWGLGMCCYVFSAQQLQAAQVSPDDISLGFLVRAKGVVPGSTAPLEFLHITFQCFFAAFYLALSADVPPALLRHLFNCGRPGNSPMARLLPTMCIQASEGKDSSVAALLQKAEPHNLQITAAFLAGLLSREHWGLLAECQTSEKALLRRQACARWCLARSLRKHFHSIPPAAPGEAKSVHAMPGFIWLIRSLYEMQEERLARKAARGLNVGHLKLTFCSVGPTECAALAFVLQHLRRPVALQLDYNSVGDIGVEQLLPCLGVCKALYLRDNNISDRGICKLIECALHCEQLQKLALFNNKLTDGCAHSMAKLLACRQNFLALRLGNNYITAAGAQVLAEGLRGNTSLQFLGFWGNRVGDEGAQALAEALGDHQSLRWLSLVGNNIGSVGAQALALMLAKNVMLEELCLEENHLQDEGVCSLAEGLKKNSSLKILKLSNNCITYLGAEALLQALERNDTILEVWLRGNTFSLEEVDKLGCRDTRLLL
T6 sequence (P09923 whole entry): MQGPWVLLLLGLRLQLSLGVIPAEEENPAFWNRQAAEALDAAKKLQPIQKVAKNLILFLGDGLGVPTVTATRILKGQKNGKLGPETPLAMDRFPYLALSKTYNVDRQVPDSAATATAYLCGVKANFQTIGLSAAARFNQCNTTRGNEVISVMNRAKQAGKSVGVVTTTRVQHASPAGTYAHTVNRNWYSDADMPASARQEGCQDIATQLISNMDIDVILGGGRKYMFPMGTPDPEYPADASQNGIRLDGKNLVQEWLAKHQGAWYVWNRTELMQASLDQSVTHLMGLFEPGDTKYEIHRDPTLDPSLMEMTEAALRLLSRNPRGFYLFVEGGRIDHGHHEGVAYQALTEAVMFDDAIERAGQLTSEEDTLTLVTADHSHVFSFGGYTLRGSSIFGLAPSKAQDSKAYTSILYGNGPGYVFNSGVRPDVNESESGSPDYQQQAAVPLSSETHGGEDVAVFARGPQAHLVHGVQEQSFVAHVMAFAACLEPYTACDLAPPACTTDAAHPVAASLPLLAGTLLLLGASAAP
T1 sequence (P10145 whole entry, the tested form may be a part): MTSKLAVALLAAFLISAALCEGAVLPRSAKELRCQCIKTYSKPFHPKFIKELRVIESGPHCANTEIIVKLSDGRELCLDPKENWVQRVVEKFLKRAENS
Chain of Tyrosine-protein phosphatase non-receptor type 12 (Q05209 whole entry): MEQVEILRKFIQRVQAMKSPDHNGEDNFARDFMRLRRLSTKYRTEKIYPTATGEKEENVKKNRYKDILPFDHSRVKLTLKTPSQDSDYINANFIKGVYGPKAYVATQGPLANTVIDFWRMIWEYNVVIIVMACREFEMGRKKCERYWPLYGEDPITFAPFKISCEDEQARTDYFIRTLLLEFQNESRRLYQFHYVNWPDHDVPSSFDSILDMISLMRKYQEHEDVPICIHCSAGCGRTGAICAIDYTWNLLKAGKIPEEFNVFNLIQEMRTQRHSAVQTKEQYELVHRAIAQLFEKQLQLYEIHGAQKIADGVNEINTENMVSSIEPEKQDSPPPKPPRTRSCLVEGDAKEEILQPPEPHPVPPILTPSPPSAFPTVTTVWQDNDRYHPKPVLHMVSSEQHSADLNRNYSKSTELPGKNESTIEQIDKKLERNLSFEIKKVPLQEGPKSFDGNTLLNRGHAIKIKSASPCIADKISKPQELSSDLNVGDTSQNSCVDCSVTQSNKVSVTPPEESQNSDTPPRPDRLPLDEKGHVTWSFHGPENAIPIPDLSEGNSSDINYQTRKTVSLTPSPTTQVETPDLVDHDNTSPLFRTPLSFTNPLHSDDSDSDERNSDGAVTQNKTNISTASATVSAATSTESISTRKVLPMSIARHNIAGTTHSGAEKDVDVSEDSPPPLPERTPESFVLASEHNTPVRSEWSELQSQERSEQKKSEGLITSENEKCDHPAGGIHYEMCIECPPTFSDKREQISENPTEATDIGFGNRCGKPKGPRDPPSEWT
Chain of Signal transducer and activator of transcription 3 (P40763 whole entry): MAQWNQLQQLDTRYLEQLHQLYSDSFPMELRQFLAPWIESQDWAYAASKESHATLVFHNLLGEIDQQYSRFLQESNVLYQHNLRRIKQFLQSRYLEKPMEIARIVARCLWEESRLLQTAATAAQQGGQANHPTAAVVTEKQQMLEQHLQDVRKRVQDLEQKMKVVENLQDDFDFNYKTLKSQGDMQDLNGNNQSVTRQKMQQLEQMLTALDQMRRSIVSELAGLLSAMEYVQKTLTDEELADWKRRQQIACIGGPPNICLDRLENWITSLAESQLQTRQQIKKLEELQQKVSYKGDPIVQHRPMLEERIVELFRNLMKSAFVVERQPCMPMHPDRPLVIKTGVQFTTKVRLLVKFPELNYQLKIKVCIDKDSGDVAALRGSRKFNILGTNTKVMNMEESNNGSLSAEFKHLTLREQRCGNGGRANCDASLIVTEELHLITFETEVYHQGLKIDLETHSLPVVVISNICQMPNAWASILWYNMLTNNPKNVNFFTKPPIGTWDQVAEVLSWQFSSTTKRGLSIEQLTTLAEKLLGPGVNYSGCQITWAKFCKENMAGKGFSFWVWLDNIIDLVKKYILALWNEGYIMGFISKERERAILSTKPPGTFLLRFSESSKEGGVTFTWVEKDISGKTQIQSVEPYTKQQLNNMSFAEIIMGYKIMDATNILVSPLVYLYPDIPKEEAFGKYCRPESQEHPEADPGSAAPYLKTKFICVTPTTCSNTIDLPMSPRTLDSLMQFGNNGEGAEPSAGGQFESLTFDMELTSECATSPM
Chain of Tumor necrosis factor (P01375 whole entry): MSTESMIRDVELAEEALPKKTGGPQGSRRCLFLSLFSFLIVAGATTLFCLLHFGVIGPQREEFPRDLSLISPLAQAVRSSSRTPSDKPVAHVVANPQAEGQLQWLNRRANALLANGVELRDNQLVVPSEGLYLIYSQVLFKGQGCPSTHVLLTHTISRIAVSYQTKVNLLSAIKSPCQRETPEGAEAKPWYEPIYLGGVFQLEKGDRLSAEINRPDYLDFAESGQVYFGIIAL

With `CC(C)Sc1nc2c(c(=O)[nH]c(=O)n2C)n1Cc1ccccc1` the IC50 (Interleukin-8 [1]) was 3.31 µM (active), the IC50 [2] was 18.5 µM (active) and the IC50 [3] was 18.1 µM (active). For the same compound, the IC50 [4] was > 20 µM (inactive), the IC50 [5] was 1.99 µM (active) and the IC50 (Tumor necrosis factor) was > 20 µM (inactive). The IC50 (HEK293 [6]) was > 20 µM (inactive), the IC50 (Interleukin-8 [7]) was > 25 µM (inactive) and the IC50 (HEK293 [8]) was > 20 µM (inactive).

With `CC1(C)C(=O)Nc2ccccc2N1C(=O)COC(=O)c1cc(Cl)cc(Cl)c1` the EC50 (Hexokinase HKDC1) was 49.1 µM (inactive) and the EC50 (Hexokinase-1) was 65.2 µM (inactive).

In the case of `OC(c1ccccc1)C1CCN(c2ncnc3sccc23)CC1` (stereo not drawn), the IC50 [9] is reported as > 55.7 µM (inactive) and the IC50 [10] is reported as 1.84 µM (active).

With `CN(Cc1ccccc1)C(=O)Nc1ccc(Cl)cc1` the EC50 [11] was > 100 µM (inactive) and the IC50 [12] was > 100 µM (inactive).

In the case of `O=C(O)COc1ccc2ccccc2c1`, the IC50 [13] is reported as > 100 µM (inactive), the IC50 [14] is reported as > 100 µM (inactive) and the IC50 [15] is reported as > 100 µM (inactive). For the same compound, the IC50 [16] was > 100 µM (inactive), the IC50 [17] was > 99 µM (inactive) and the IC50 [18] was > 100 µM (inactive). The IC50 [19] was 54.7 µM (active) and the IC50 [20] was > 99 µM (inactive).
